For orientation: Ki means a dissociation constant, usually derived from enzyme kinetics or from competition with a known ligand. One may read the IC50 as the midpoint of a concentration-inhibition curve.

The values that follow come from patent US12441718B2, “Selective angiotensin II compounds” (VICORE PHARMA AB, priority 2021, dated 2025).

Like-named read-outs stand apart in the source and are kept apart here. A value given as a limit tells only on which side of the number the result lay.

Data set [1] in a line: Metabolic stability in pooled human liver microsomes. Format: in vitro ADME. The settings on record: human, pooled human liver microsomes, pooled human liver microsomes 0.5 mg/mL, 1 μM test compound, 37° C., * rows = mean of two runs. As for the experimental part: Pooled human liver microsomes in PBS at a concentration of 0.5 mg/mL was incubated with or without 1 mM NADPH for 70 min at 37° C. Test compound was added after 10 minutes to a final concentration of 1 μM. Samples were withdrawn at 0, 5, 15 and 60 minutes and added to test tubes containing acetonitrile, to stop the reaction, and with terfenadine, used as internal standard. After centrifugation at 10 000×g for 5 minutes the supernatant was diluted 1:1 with 1% formic acid. Samples were separated on a reverse phase column and detected by triple quadrupole MSMS (Agilant model 6540). The concentration of the parent compound at the different time points was measured with an external standard curve using terfenadine as internal standard and the initial metabolic rate in the presence or absence of NADPH calculated.
A general note: Microsomes from liver hold many membrane-bound enzymes, among them those of drug oxidation.

Data set [2] deals with T1, human recombinant AT2 receptor (Homo sapiens, UniProt P50052).
T1 construct: purchased Eurofins ITEM26 (protocol number)
T1 sequence (P50052 1-363): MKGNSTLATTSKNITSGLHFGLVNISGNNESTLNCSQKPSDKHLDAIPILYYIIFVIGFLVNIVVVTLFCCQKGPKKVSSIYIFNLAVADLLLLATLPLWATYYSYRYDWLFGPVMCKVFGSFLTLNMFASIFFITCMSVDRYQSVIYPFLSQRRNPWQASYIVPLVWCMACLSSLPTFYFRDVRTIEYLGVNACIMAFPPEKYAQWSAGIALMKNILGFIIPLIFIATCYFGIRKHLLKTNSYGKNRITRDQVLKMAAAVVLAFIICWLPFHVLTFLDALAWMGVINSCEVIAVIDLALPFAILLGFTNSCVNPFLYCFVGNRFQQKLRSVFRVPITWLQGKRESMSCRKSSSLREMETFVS
The data set is described as follows: Binding to AT2 receptor, radiometric scintillation assay (Eurofins ITEM26).

Setting [3] is: with 1 mM NADPH, read-out: T1/2, + NaDPH.
[4] abbreviates: without NADPH, read-out: T1/2, no NaDPH.
Where [5] appears, read: test compounds at 1, 10, 100 and 1000 nM, ligand 125I CGP 42112A, * rows = mean of runs, read-out: AT2 GraFit IC50.

On to `CC(C)Cc1ccc(S(=O)(=O)Nc2ncccn2)c(-c2ccc(Cn3ccnc3C(C)(C)O)cc2)c1` [Example 15, 4′-((2-(2-Hydroxypropan-2-yl)-1H-imidazol-1-yl)methyl)-5-isobutyl-N-(pyrimidin-2-yl)-[1,1′-biphenyl]-2-sulfonamide], for which the half-life at 1 μM in data set [1] (setting [3]) and in data set [1] (setting [4]) was above 1 h each time.

Take `CC(C)Cc1ccc(S(=O)(=O)Nc2ncccn2)c(-c2ccc(Cn3ccnc3C(C)C)cc2)c1` [Example 39, 5-Isobutyl-4′-((2-isopropyl-1H-imidazol-1-yl)methyl)-N-(pyrimidin-2-yl)-[1,1′-biphenyl]-2-sulfonamide]: the half-life at 1 μM was 0.95 h in data set [1] (setting [3]) and above 1 h in data set [1] (setting [4]).

On to `CC(C)Cc1ccc(S(=O)(=O)Nc2ncccn2)c(-c2ccc(Cn3ccnc3C3CC3)c(F)c2)c1` [Example 42, 4′-((2-Cyclopropyl-1H-imidazol-1-yl)methyl)-3′-fluoro-5-isobutyl-N-(pyrimidin-2-yl)-[1,1′-biphenyl]-2-sulfonamide], for which the half-life at 1 μM in data set [1] (setting [3]) and in data set [1] (setting [4]) was above 1 h each time.

`CC(C)Cc1cc(-c2ccc(Cn3ccnc3C(C)(C)C)c(F)c2)c(S(=O)(=O)Nc2ncccn2)s1` [Example 43, 3-(4-((2-(tert-Butyl)-1H-imidazol-1-yl)methyl)-3-fluorophenyl)-5-isobutyl-N-(pyrimidin-2-yl)thiophene-2-sulfonamide]: the half-life at 1 μM in data set [1] (setting [3]) and in data set [1] (setting [4]) was above 1 h throughout. Besides, in data set [2] (seven-point dose-response curve, ligand 125I CGP 42112A, * rows = mean of runs), the inhibition constant (Ki) was 0.3 nM. Besides, the 50% inhibitory concentration (IC50) in data set [2] (setting [5]) amounted to 0.6 nM.

Regarding `CC(C)Cc1cc(-c2ccc(Cn3ccnc3)c(F)c2)c(S(=O)(=O)Nc2ncccn2)s1` [Example 48, 3-(4-((1H-Imidazol-1-yl)methyl)-3-fluorophenyl)-5-isobutyl-N-(pyrimidin-2-yl)thiophene-2-sulfonamide], the half-life at 1 μM in data set [1] (setting [3]) and in data set [1] (setting [4]) was above 1 h in each case.

`CCc1nccn1Cc1ccc(-c2cc(CC(C)C)ccc2S(=O)(=O)Nc2ncccn2)cc1` [Example 40, 4′-((2-Ethyl-1H-imidazol-1-yl)methyl)-5-isobutyl-N-(pyrimidin-2-yl)-[1,1′-biphenyl]-2-sulfonamide]: the half-life at 1 μM in data set [1] (setting [3]) is 0.75 h; in data set [1] (setting [4]), above 1 h.

On to `CC(C)Cc1cc(-c2ccc(Cn3ccnc3C(C)(C)C)cc2)c(S(=O)(=O)Nc2ncccn2)s1` [Example 16, 3-(4-((2-(tert-Butyl)-1H-imidazol-1-yl)methyl)phenyl)-5-isobutyl-N-(pyrimidin-2-yl)thiophene-2-sulfonamide], for which the half-life at 1 μM in data set [1] (setting [3]) and in data set [1] (setting [4]) was above 1 h in each case.

On to `CC(C)Cc1ccc(S(=O)(=O)Nc2ncccn2)c(-c2ccc(Cn3ccnc3C3CC3)cc2)c1` [Example 41, 4′-((2-Cyclopropyl-1H-imidazol-1-yl)methyl)-5-isobutyl-N-(pyrimidin-2-yl)-[1,1′-biphenyl]-2-sulfonamide], for which the half-life at 1 μM in data set [1] (setting [3]) and in data set [1] (setting [4]) was above 1 h each time.

`CC(C)Cc1ccc(S(=O)(=O)Nc2ncccn2)c(-c2ccc(Cn3ccnc3C(C)(C)C)cc2)c1` [Example 17, 4′-((2-(tert-Butyl)-1H-imidazol-1-yl)methyl)-5-isobutyl-N-(pyrimidin-2-yl)-[1,1′-biphenyl]-2-sulfonamide]: the half-life at 1 μM in data set [1] (setting [3]) and in data set [1] (setting [4]) was above 1 h in each case.

Take `Cc1nccn1Cc1ccc(-c2cc(CC(C)C)ccc2S(=O)(=O)Nc2ncccn2)cc1F` [Example 53, Potassium ((3′-fluoro-5-isobutyl-4′-((2-methyl-1H-imidazol-1-yl)methyl)-[1,1′-biphenyl]-2-yl)sulfonyl)(pyrimidin-2-yl)amide]: the IC50 is 0.25 nM in data set [2] (AT2 GraFit IC50, value in parentheses after <0.3, value printed in parentheses behind the bound <0.3) and below 0.3 nM in data set [2] (setting [5]).
